# Earlier results, collected in patent publication US11534424B2, “Compounds and methods for treatment of primary biliary cholangitis” (Arena Pharmaceuticals, Inc., priority 2017, dated 2022).
# Legend:
# [1] = system: experimental autoimmune encephalomyelitis (EAE); details: murine EAE, relative to vehicle
# [2] = system: collagen induced arthritis (CIA); details: CIA rats
# [3] = chronic administration
Structure (SMILES),liver enzyme elevation [3],other results
"O=C(O)C[C@H]1CCc2c1[nH]c1ccc(OCc3ccc(C4CCCC4)c(C(F)(F)F)c3)cc21 [Compound 1, (R)-2-(7-(4-cyclopentyl-3-(trifluoromethyl)benzyloxy)-1,2,3,4-tetrahydrocyclopenta[b]indol-3-yl)acetic acid]",,"disease course, therapeutic administration ([1]; administered day 18 to day 37, similar to fingolimod): reverse the disease relative to vehicle; onset and severity of disease, prophylactic administration ([1]; up to day 25): prevented the onset and severity of disease relative to vehicle up to day 25; histological parameters in the knees and ankles [2]: Improvement in histological parameters"
CC(C)Oc1ncc(-c2nc(-c3cccc4c3ccn4CCCC(=O)O)no2)cc1Cl [GSK2018682],liver enzyme elevation has been seen,
CCCCCCCCc1ccc(CCC(N)(CO)CO)cc1 [fingolimod],liver enzyme elevation has been seen,
CC(C)Oc1ccc(-c2nc(-c3cccc4c3CC[C@@H]4NCCO)no2)cc1C#N [ozanimod],liver enzyme elevation has been seen,
CCC/N=C1\S/C(=C\c2ccc(OC[C@H](O)CO)c(Cl)c2)C(=O)N1c1ccccc1C [ponesimod],liver enzyme elevation has been seen,
CCc1cc(/C(C)=N/OCc2ccc(C3CCCCC3)c(C(F)(F)F)c2)ccc1CN1CC(C(=O)O)C1 [siponimod],liver enzyme elevation has been seen,
